For experiment [1], the system named is human cardiac fibroblast (HCF). Kind of experiment: TGF-β1-induced fibronectin deposition and α-SMA expression in HCF (immunofluorescence). Type of experiment: cell-based. The following applies: for TGF-β1-increased cell spreading area: 10 μM co-treatment; for expression of fibronectin and α-SMA induced by TGF-β1: 10 μM, immunofluorescence. As to the method:
Cells were co-treated with various compounds (10 μM) and TGF-β1 for 24 hours. Following this, cell lysates were harvested, and the protein expression was assessed by Western blot analysis. FIG. 3D depicts the examination of TGF-β1-induced fibronectin deposition and α-SMA expression in HCF treated with 10 μM of DMSO, BTP2, WRG-28, or Av through immunofluorescence staining. The images were captured using a confocal microscope, the Olympus FV-1000. FIG. 3E, FIG. 3F, and FIG. 3G illustrate the assessment of CRAC channel activity in HCF, MRC5, and rat HSC-T6. These cells were pretreated with 10 μM of BTP2, WRG-28, or Av for 45 min. The evaluation included measuring the second peak of each calcium wave and the rate of entry. Each bar within the figure represents the mean value derived from 77 to 91 cells for HCF, 31 to 49 cells for MRC5, and 43 to 94 cells for HSC-T6. In all the graphs, *, **, and *** denote p-values of <0.05, 0.01, and 0.001, respectively.
In TGF-β1-induced cell differentiation, cells were seeded on a type I collagen-coated tissue culture dish and then treated with different compounds for 4 hours. Cells were then treated with 10 ng/ml TGF-β1 for another 24 hours before protein analysis or immunocytochemistry study.
Cells cultured on chamber slides were fixed with 4% paraformaldehyde for 10 minutes followed by a permeabilization step by incubating cells in 0.5% Triton X-100 in PBS for 5 minutes. Cells were then incubated in SuperBlock blocking buffer (Thermo Scientific) for 1 h at room temperature. The protein expression was detected by incubating cells with specific primary antibodies followed by incubating cells with secondary antibodies against mouse or rabbit IgG conjugated with Alexa-488 or -594 nm (Invitrogen), respectively. Hoechst 33258 (10 μg/ml) is used for nuclei staining. All images were visualized and taken by confocal microscopy (Olympus, FV-1000).
To assess the overall effects of WRG-28 and Av on TGF-1-induced fibroblast activation, human cardiac fibroblasts (HCF), human pulmonary fibroblasts (MRC5), and rat hepatic stellate cells (HSC-T6) were employed. The upregulation of α-SMA induced by TGF-β1 treatment was observed, but this effect was suppressed by the co-treatment with various compounds, including BTP2, WRG-28, and Av, across all tested cell (FIG. 3A, FIG. 3B, and FIG. 3C). The expression of fibronectin and α-SMA induced by TGF-β1 in HCF was examined, and once again, the treatment with BTP2, WRG-28, or Av suppressed this effect (FIG. 3D).

Experiment [2] deals with UUO-induced renal fibrosis. Kind of experiment: Unilateral ureteral obstruction (UUO) renal fibrosis model. The experiment is classed as in vivo, mouse. The following applies: for UUO-induced downregulation of E-cadherin (kidney, Western blot) / UUO-induced upregulation of integrin β1, DDR2, collagen 1a1, and α-SMA (kidney, Western blot) / area positively stained with fibrillar collagen (Sirius red) / histology: UUO-induced tubular dilation and interstitial expansion (H&E): 5 mg/kg/day for 7 days; for apoptotic tubular cells (TUNEL): 5 mg/kg/day for 7 days during ureter obstruction. As to the method:
Surgical ligation was performed on the left ureter of 7-to-8-week-old male mice using a nylon surgical suture. Subsequently, the mice were treated with 5 mg/kg/day of DMSO (control), BTP2, WRG-28, or Av for 7 days. […] FIG. 5B illustrates the evaluation of fibrillar collagen expression levels via Sirius red staining. FIG. 5C presents the measurement of the Sirius red-positive area using Image J. FIG. 5D, FIG. 5E, FIG. 5F, FIG. 5G, and FIG. 5H depict the protein levels of integrin β1, DDR2, Collagen 1a1, α-SMA, and E-cadherin in kidney samples from mice treated with 5 mg/kg/day of BTP2 (FIG. 5D), WRG-28 (FIG. 5F), or Av (FIG. 5H), which were assessed by Western blot analysis. […] FIG. 5K illustrates the evaluation of apoptotic cells from 5-10 pictures in each condition.
Cell lysates were harvested in RIPA buffer (150 mM NaCl, 1 mM EGTA, 50 mM Tris pH 7.4, 10% glycerol, 1% Triton X-100, 1% sodium deoxycholate, 0.1% SDS, and protease inhibitor cocktail) and collected from culture dish with cell scrapers. For tissue sample preparation, half of the kidney tissues were cut into ˜1 mm3 and then put into 500 μl RIPA buffer in 2 ml tubes. Mechanical homogenizers by agitating beads at high speeds for 30 seconds were used for tissue protein extraction. Protein samples in supernatants were collected after centrifuging the tubes at 10000 g for 10 min at 4° C. 20-30 μg protein samples were resolved by 7.5% or 10% SDS-PAGE. The protein expression levels were assessed by specific primary antibodies, including antibodies against phosphotyrosine (clone 4G10; Millipore), DDR2 (R&D), α-SMA (Sigma), Collagen 1a1 (Boster), E-cadherin (BD Biosciences), SGLT2 (Proteintech), NHE1 (Novus) and β-actin (Clone C4, Millipore), followed by incubating with secondary antibodies conjugated with HRP and detected by ECL kit (Thermo Scientific).
Procedures involving animal subjects have been approved by the Institutional Animal Care and Use Committee (IACUC) at the National Laboratory Animal Center. 7-8 weeks old male C57BL/6 mice were obtained from the animal center. Unilateral ureteral obstruction (UUO) was performed by ligating the left ureter and mice were treated with 5 mg/kg/day DMSO, BTP2, WRG-28, or Av for 7 days after ligation. After 7 days, mice were sacrificed and the kidneys were removed and used for analysis. One-quarter of the kidney was fixed by 4% paraformaldehyde and embedded in paraffin or one-quarter of the kidney was embedded in the Tissue-Tek OCT compound. Half of the kidneys are used for protein analysis. In the reversible unilateral ureteral obstruction (RUUO) experiment, the ligated-left ureter was re-connected to the bladder after UUO surgery for 7 days. The compounds, WRG-28 and Av, were injected during ligation (7*/15d) or after ligation was released (7/15*d). To assess the kidney function, the right ureter was ligated the day before leaving mice in the metabolic cage. The urine and blood were collected for blood urea nitrogen (BUN) and creatinine (CRE) test.
Deparaffinize and rehydrate tissue slides were immersed in filtered Harris Hematoxylin for 10 seconds. After extensively washing in tap water, samples were immersed in Alcoholic-Eosin for 2 minutes. The tissue was then dehydrated and mounted by resinous medium and glass coverslips.
Deparaffinize and rehydrate tissue slides were stained with Picrosirius red for one hour, followed by an extensive wash with acidified water. After dehydration through 3 runs of change of 95% ethanol, 2 runs of change of 100% ethanol, and 3 runs of change of xylene, tissue slides were mounted by resinous mounting medium and glass coverslips. […]
The TUNEL assay kit was purchased from Abcam (ab206386). The procedure was carried out following the manufactory's instructions. […]
For orientation: In western blotting, separated proteins are transferred to a membrane and probed.

The values that follow come from US20250339443A1, “METHOD FOR TREATING OR PREVENTING CALCIUM RELEASE-ACTIVATED CALCIUM CHANNEL OR DISCOIDIN DOMAIN RECEPTOR 2 RELATED DISORDERS OR CONDITIONS” (LumiSTAR Biotechnology, Inc., priority 2023, published 2025).

“Also recorded” adds a separate entry of the source.

`CCNS(=O)(=O)c1ccc(COc2ccc3nc4ccc(=O)cc-4oc3c2)cc1` [WRG-28]: in experiment [1], the “TGF-β1-increased cell spreading area” value was “mitigated”; the “expression of fibronectin and α-SMA induced by TGF-β1” value is recorded as “suppressed”. Moreover, in experiment [2], the “UUO-induced downregulation of E-cadherin (kidney, Western blot)” value is “reversing”; the “UUO-induced upregulation of integrin β1, DDR2, collagen 1a1, and α-SMA (kidney, Western blot)” value is “suppressed”; the “area positively stained with fibrillar collagen (Sirius red)” value is listed as “significantly reduced”; the “histology: UUO-induced tubular dilation and interstitial expansion (H&E)” value is “appeared to mitigate the effects caused by UUO”. In experiment [2], the “apoptotic tubular cells (TUNEL)” value is listed as “notably reduced; also recorded: significantly reduced”.
Consider `Cc1nnsc1C(=O)Nc1ccc(-n2nc(C(F)(F)F)cc2C(F)(F)F)cc1` [BTP2], for which, in experiment [1], the “TGF-β1-increased cell spreading area” value is recorded as “mitigated”; the “expression of fibronectin and α-SMA induced by TGF-β1” value is listed as “suppressed”. Moreover, in experiment [2], the “UUO-induced downregulation of E-cadherin (kidney, Western blot)” value is reported as “reversing”; the “UUO-induced upregulation of integrin β1, DDR2, collagen 1a1, and α-SMA (kidney, Western blot)” value was “suppressed”; the “area positively stained with fibrillar collagen (Sirius red)” value is listed as “significantly reduced”; the “histology: UUO-induced tubular dilation and interstitial expansion (H&E)” value is listed as “appeared to mitigate the effects caused by UUO”. In addition, in experiment [2], the “apoptotic tubular cells (TUNEL)” value is “notably reduced”.
